# Source: ChEMBL document CHEMBL5543125, “Discovery of 2,3-Dihydro[1,4]dioxino[2,3-g]benzofuran Derivatives as Protease Activated Receptor 4 (PAR4) Antagonists with Potent Antiplatelet Aggregation Activity and Low Bleeding Tendency” (J Med Chem, 2024)
# Calls of active or inactive are those of the source. No cut-off for these calls is given here.
# Assays:
# [1] = Oral bioavailability in Sprague-Dawley rat at 50 mg/kg; assay type: ADME, organism-based; details: in vivo
# Platelet [2] = test: Antagonist activity at GPIB/vWF in human plasma assessed as inhibition of ristocetin-induced platelet aggregation at 20 nM to 1 uM preincubated for 5 mins followed by aggregation inducer addition and measured after 5 mins by light transmission aggregometry; assay type: cell-free; details: dose 20-1000 nM, time 10.0 min
# Platelet [3] = test: (§1) Antiplatelet aggregation activity in human plasma assessed as inhibition of thrombin induced platelet aggregation by measuring residual aggregation rate at 20 nM to 1 uM preincubated for 5 mins followed by aggregation inducer addition and measured after 5 mins by light transmission aggregometry relative to control; assay type: functional; details: dose 20-1000 nM, time 10 min, at 20 to 1000 nM
# Platelet [4] = test: Antagonist activity at P2Y1/P2Y12 in human plasma assessed as inhibition of ADP-induced platelet aggregation at 20 nM to 1 uM preincubated for 5 mins followed by aggregation inducer addition and measured after 5 mins by light transmission aggregometry; assay type: cell-free; details: dose 20-1000 nM, time 10.0 min
# [5] = target: T1, Proteinase-activated receptor 4 (Homo sapiens) (UniProt Q96RI0); test: as §1, with “Antagonist” for “Antiplatelet aggregation”, “activity at PAR4” for “activity”, “PAR4-activated peptide AYPGPK-NH2” for “thrombin”; assay type: functional, cell-free; details: filed as antagonist, dose 20-1000 nM, time 10.0 min
# T1 sequence (whole entry): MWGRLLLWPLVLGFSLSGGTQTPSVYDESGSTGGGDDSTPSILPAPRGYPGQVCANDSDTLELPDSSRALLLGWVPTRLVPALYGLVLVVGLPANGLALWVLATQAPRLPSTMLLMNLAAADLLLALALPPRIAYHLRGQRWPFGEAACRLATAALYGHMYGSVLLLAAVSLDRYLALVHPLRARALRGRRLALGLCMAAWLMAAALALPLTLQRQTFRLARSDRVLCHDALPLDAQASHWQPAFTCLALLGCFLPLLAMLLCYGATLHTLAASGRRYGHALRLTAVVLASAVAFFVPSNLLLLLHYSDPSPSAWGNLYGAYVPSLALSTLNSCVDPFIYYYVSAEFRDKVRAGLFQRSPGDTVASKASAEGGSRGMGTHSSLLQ
# [6] = target: T1, Proteinase-activated receptor 4 (Homo sapiens); test: Antagonist activity at PAR4 in human filtered plasma assessed as inhibition of PAR4-activated peptide AYPGPK-NH2 induced platelet aggregation at 10 nM preincubated for 5 mins followed by aggregation inducer addition and measured after 5 mins by light transmission aggregometry relative to control; assay type: functional, cell-free; details: filed as antagonist, time 10.0 min
# [7] = target: T2, Thromboxane A2 receptor (Homo sapiens) (UniProt P21731); test: Antagonist activity at thromboxane A2 receptor in human plasma assessed as inhibition of U46619-induced platelet aggregation at 20 nM to 1 uM preincubated for 5 mins followed by aggregation inducer addition and measured after 5 mins by light transmission aggregometry; assay type: functional, cell-free; details: dose 20-1000 nM, time 10.0 min
# T2 sequence (whole entry): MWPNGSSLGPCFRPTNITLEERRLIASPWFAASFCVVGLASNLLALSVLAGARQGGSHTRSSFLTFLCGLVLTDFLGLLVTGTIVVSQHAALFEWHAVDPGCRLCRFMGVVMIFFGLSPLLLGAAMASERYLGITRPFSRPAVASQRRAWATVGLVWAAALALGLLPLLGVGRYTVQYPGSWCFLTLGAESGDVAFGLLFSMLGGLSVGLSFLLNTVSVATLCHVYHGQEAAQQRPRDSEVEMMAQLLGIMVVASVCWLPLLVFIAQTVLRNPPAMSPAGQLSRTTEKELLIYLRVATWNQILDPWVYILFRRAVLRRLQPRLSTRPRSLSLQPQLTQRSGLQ
# [8] = target: T3, Platelet glycoprotein VI (Homo sapiens) (UniProt Q9HCN6); test: Antagonist activity at GPVI in human plasma assessed as inhibition of collagen-induced platelet aggregation at 20 nM to 1 uM preincubated for 5 mins followed by aggregation inducer addition and measured after 5 mins by light transmission aggregometry; assay type: cell-free; details: dose 20-1000 nM, time 10.0 min
# T3 sequence (whole entry): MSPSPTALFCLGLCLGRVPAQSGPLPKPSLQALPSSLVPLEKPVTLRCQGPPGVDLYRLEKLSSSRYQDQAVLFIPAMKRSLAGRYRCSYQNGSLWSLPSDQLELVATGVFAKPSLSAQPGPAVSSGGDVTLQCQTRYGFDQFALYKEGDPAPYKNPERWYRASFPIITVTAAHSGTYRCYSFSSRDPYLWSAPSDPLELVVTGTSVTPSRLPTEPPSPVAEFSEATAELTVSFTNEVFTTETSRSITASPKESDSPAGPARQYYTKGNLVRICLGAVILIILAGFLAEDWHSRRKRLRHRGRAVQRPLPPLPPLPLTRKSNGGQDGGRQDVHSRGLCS
# Platelet [9] = test: Inhibition of platelet aggregation in human platelet rich plasma preincubated for 5 mins followed by aggregation inducer addition and measured after 5 mins by light transmission aggregometry; assay type: functional, cell-based
# [10] = Metabolic stability in human liver microsomes assessed as half life at 1 uM preincubated for 1 hr followed by NADPH addition and measured upto 60 mins by LC-MS/MS analysis; assay type: ADME, Microsome; details: time < 120 min
# Platelet [11] = test: Inhibition of platelet aggregation in human platelet rich plasma at 20 uM preincubated for 5 mins followed by aggregation inducer addition and measured after 5 mins by light transmission aggregometry relative to control; assay type: functional; details: 10 min
# [12] = target: T1, Proteinase-activated receptor 4 (Homo sapiens); test: Antagonist activity at PAR4 in human filtered plasma assessed as inhibition of PAR4-activated peptide AYPGPK-NH2 induced platelet aggregation at 3 nM preincubated for 5 mins followed by aggregation inducer addition and measured after 5 mins by light transmission aggregometry; assay type: functional, cell-free; details: filed as antagonist, time 10.0 min
# [13] = target: T4, Proteinase-activated receptor 1 (Homo sapiens) (UniProt P25116); test: Antagonist activity at PAR1 in human plasma assessed as inhibition of PAR1-activated peptide SFLLRNPNDKY induced platelet aggregation at 20 nM to 1 uM preincubated for 5 mins followed by aggregation inducer addition and measured after 5 mins by light transmission aggregometry; assay type: functional, cell-free; details: dose 20-1000 nM, time 10.0 min
# T4 sequence (whole entry): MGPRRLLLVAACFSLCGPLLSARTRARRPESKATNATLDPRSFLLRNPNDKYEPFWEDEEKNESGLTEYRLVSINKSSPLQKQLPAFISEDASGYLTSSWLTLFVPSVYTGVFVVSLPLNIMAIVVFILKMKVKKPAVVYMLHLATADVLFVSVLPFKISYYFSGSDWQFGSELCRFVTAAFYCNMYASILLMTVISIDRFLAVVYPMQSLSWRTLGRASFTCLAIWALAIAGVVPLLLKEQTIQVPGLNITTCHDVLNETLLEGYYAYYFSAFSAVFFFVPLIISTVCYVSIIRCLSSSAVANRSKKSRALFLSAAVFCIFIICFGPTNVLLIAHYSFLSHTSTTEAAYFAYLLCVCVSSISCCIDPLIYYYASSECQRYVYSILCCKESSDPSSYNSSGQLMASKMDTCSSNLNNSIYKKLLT
# [14] = target: T4, Proteinase-activated receptor 1 (Homo sapiens); test: Antagonist activity at PAR1 in human plasma assessed as inhibition of PAR1-activated peptide SFLLRNPNDKY induced platelet aggregation upto 9 uM preincubated for 5 mins followed by aggregation inducer addition and measured after 5 mins by light transmission aggregometry; assay type: functional, cell-free; details: time 10.0 min
smiles,measurement,setting,value
COc1nn2cc(-c3cc4ccc5c(c4o3)OCCO5)nc2s1,bioavailability,[1],0.94%
same,Activity,Platelet [2],inactive
same,Activity,Platelet [3],<30%
same,Activity,Platelet [4],inactive
same,Activity,[5],< 30%
same,inhibition,[6],100%
same,Activity,[7],inactive
same,Activity,[8],inactive
same,IC50,Platelet [9],3.2 nM
same,half-life at 1 µM,[10],12.2 min
same,inhibition at 20 µM,Platelet [11],90.5%
same,Activity,[12],Active
same,Activity,[13],inactive
same,Activity,[14],inactive
